Measured values as given in US12144795B2, “Cannabidiol compositions having modified cannabinoid profiles” (priority 2018, dated 2024).

Assay: Stability studies of CBD prepared via Protocol 3 (crude, pure, 2x recrystallized; 5° C., 25° C./60% RH, 40° C./75% RH)
Assay type: physicochemical

## C=C(C)[C@@H]1CCC(C)=C[C@H]1c1c(O)cc(CCCCC)cc1O [Pure CBD (Recrystallized Twice)]
25° C./60% RH, 0 month
  Related substances by HPLC (low level): Δ9-Tetrahydrocannabinol: 11 ppm
  Water content in % w/w: <0.05%
25° C./60% RH, 1 month
  Appearance: Off-White
  Assay by HPLC: 100.2%
  Each unspecified impurity: <0.03% (ND)
  Related substances by HPLC (low level): Δ8-Tetrahydrocannabinol: 9 ppm
  Related substances by HPLC (low level): Δ9-Tetrahydrocannabinol: 6 ppm
  Related substances by HPLC: 4-Monobromo-CBD: <0.03% (ND)
  Related substances by HPLC: Olivetol: <0.03% (ND)
  Related substances by HPLC: Sum of impurities, ≥0.05%: <0.05% (ND)
  Related substances by HPLC: Δ8-Tetrahydrocannabinol: <0.02% (ND)
  Related substances by HPLC: Δ9-Tetrahydrocannabinol: <0.02% (ND)
25° C./60% RH, 2 months
  Appearance: Oft-White
  Assay by HPLC: 99.9%
  Each unspecified impurity: <0.03% (ND)
  Related substances by HPLC (low level): Δ8-Tetrahydrocannabinol: 7 ppm
  Related substances by HPLC (low level): Δ9-Tetrahydrocannabinol: 4 ppm
  Related substances by HPLC: 4-Monobromo-CBD: <0.03% (ND)
  Related substances by HPLC: Olivetol: <0.03% (ND)
  Related substances by HPLC: Sum of impurities, ≥0.05%: <0.05% (ND)
  Related substances by HPLC: Δ8-Tetrahydrocannabinol: <0.02% (ND)
  Related substances by HPLC: Δ9-Tetrahydrocannabinol: <0.02% (ND)
25° C./60% RH, 3 months
  Appearance: White
  Assay by HPLC: 98.4%
  Each unspecified impurity: RRT~1.980: RRT~1.980: 0.03%
  Related substances by HPLC (low level): Δ8-Tetrahydrocannabinol: 13 ppm
  Related substances by HPLC (low level): Δ9-Tetrahydrocannabinol: <4 ppm
  Related substances by HPLC: 4-Monobromo-CBD: <0.03% (ND)
  Related substances by HPLC: Olivetol: <0.03% (ND)
  Related substances by HPLC: Sum of impurities, ≥0.05%: <0.05%
  Related substances by HPLC: Δ8-Tetrahydrocannabinol: <0.02% (ND)
  Related substances by HPLC: Δ9-Tetrahydrocannabinol: <0.02% (ND)
40° C./75% RH, 0 month
  Related substances by HPLC (low level): Δ9-Tetrahydrocannabinol: 11 ppm
  Water content in % w/w: <0.05%
40° C./75% RH, 1 month
  Appearance: Off-White
  Assay by HPLC: 99.5%
  Each unspecified impurity: <0.03% (ND)
  Related substances by HPLC (low level): Δ8-Tetrahydrocannabinol: 6 ppm
  Related substances by HPLC (low level): Δ9-Tetrahydrocannabinol: 4 ppm
  Related substances by HPLC: 4-Monobromo-CBD: <0.03% (ND)
  Related substances by HPLC: Olivetol: <0.03% (ND)
  Related substances by HPLC: Sum of impurities, ≥0.05%: <0.05% (ND)
  Related substances by HPLC: Δ8-Tetrahydrocannabinol: <0.02% (ND)
  Related substances by HPLC: Δ9-Tetrahydrocannabinol: <0.02% (ND)
40° C./75% RH, 2 months
  Appearance: Off-White
  Assay by HPLC: 101.7%
  Each unspecified impurity: <0.03% (ND)
  Related substances by HPLC (low level): Δ8-Tetrahydrocannabinol: 6 ppm
  Related substances by HPLC (low level): Δ9-Tetrahydrocannabinol: <4 ppm (3 ppm)
  Related substances by HPLC: 4-Monobromo-CBD: <0.03% (ND)
  Related substances by HPLC: Olivetol: <0.03% (ND)
  Related substances by HPLC: Sum of impurities, ≥0.05%: <0.05% (ND)
  Related substances by HPLC: Δ8-Tetrahydrocannabinol: <0.02% (ND)
  Related substances by HPLC: Δ9-Tetrahydrocannabinol: <0.02% (ND)
40° C./75% RH, 3 months
  Appearance: Off-white
  Assay by HPLC: 99.4%
  Each unspecified impurity: RRT~1.981: 0.03%
  Related substances by HPLC (low level): Δ8-Tetrahydrocannabinol: 14 ppm
  Related substances by HPLC (low level): Δ9-Tetrahydrocannabinol: <4 ppm
  Related substances by HPLC: 4-Monobromo-CBD: <0.03% (ND)
  Related substances by HPLC: Olivetol: <0.03% (ND)
  Related substances by HPLC: Sum of impurities, ≥0.05%: <0.05%
  Related substances by HPLC: Δ8-Tetrahydrocannabinol: <0.02% (ND)
  Related substances by HPLC: Δ9-Tetrahydrocannabinol: <0.02% (ND)
40° C./75% RH, 5 months
  Appearance: Off-white
  Assay by HPLC: 98.9%
  Each unspecified impurity: RRT~0.956: 0.04%
  Related substances by HPLC (low level): Δ8-Tetrahydrocannabinol: 21 ppm
  Related substances by HPLC (low level): Δ9-Tetrahydrocannabinol: <4 ppm
  Related substances by HPLC: 4-Monobromo-CBD: <0.03% (ND)
  Related substances by HPLC: Olivetol: <0.03% (ND)
  Related substances by HPLC: Sum of impurities, ≥0.05%: <0.05%
  Related substances by HPLC: Δ8-Tetrahydrocannabinol: <0.02% (ND)
  Related substances by HPLC: Δ9-Tetrahydrocannabinol: <0.02% (ND)

## C=C(C)[C@@H]1CCC(C)=C[C@H]1c1c(O)cc(CCCCC)cc1O [Pure CBD]
25° C./60% RH, 0 month
  Related substances by HPLC (low level): Δ9-Tetrahydrocannabinol: 26 ppm
  Water content in % w/w: <0.05%
25° C./60% RH, 1 month
  Appearance: Off-White Powder
  Assay by HPLC: 99.7%
  Each unspecified impurity: RRT~1.927: RRT~1.927: 0.06%
  Related substances by HPLC (low level): Δ8-Tetrahydrocannabinol: 25 ppm
  Related substances by HPLC (low level): Δ9-Tetrahydrocannabinol: 21 ppm
  Related substances by HPLC: 4-Monobromo-CBD: <0.03% (ND)
  Related substances by HPLC: Olivetol: <0.03% (ND)
  Related substances by HPLC: Sum of impurities, ≥0.05%: 0.06%
  Related substances by HPLC: Δ8-Tetrahydrocannabinol: <0.02% (ND)
  Related substances by HPLC: Δ9-Tetrahydrocannabinol: <0.02% (ND)
25° C./60% RH, 2 months
  Appearance: Off-White Powder
  Assay by HPLC: 100.3%
  Each unspecified impurity: RRT~1.935: RRT~1.935: 0.08%
  Related substances by HPLC (low level): Δ8-Tetrahydrocannabinol: 21 ppm
  Related substances by HPLC (low level): Δ9-Tetrahydrocannabinol: 14 ppm
  Related substances by HPLC: 4-Monobromo-CBD: <0.03% (ND)
  Related substances by HPLC: Olivetol: <0.03% (ND)
  Related substances by HPLC: Sum of impurities, ≥0.05%: 0.08%
  Related substances by HPLC: Δ8-Tetrahydrocannabinol: <0.02% (ND)
  Related substances by HPLC: Δ9-Tetrahydrocannabinol: <0.02% (ND)
25° C./60% RH, 3 months
  Appearance: Off-white
  Assay by HPLC: 98.5%
  Each unspecified impurity: RRT~1.982: RRT~1.982: 0.03%
  Related substances by HPLC (low level): Δ8-Tetrahydrocannabinol: 36 ppm
  Related substances by HPLC (low level): Δ9-Tetrahydrocannabinol: <4 ppm (2 ppm)
  Related substances by HPLC: 4-Monobromo-CBD: <0.03% (ND)
  Related substances by HPLC: Olivetol: <0.03% (ND)
  Related substances by HPLC: Sum of impurities, ≥0.05%: <0.05%
  Related substances by HPLC: Δ8-Tetrahydrocannabinol: <0.02% (ND)
  Related substances by HPLC: Δ9-Tetrahydrocannabinol: <0.02% (ND)
40° C./75% RH, 0 month
  Related substances by HPLC (low level): Δ9-Tetrahydrocannabinol: 26 ppm
  Water content in % w/w: <0.05%
40° C./75% RH, 1 month
  Appearance: Off-White
  Assay by HPLC: 99.5%
  Each unspecified impurity: RRT~1.929: 0.05%
  Related substances by HPLC (low level): Δ8-Tetrahydrocannabinol: 22 ppm
  Related substances by HPLC (low level): Δ9-Tetrahydrocannabinol: 14 ppm
  Related substances by HPLC: 4-Monobromo-CBD: <0.03% (ND)
  Related substances by HPLC: Olivetol: <0.03% (ND)
  Related substances by HPLC: Sum of impurities, ≥0.05%: 0.05%
  Related substances by HPLC: Δ8-Tetrahydrocannabinol: <0.02% (ND)
  Related substances by HPLC: Δ9-Tetrahydrocannabinol: <0.02% (ND)
40° C./75% RH, 2 months
  Appearance: Off-White
  Assay by HPLC: 100.2%
  Each unspecified impurity: RRT~1.932: 0.07%
  Related substances by HPLC (low level): Δ8-Tetrahydrocannabinol: 20 ppm
  Related substances by HPLC (low level): Δ9-Tetrahydrocannabinol: 9 ppm
  Related substances by HPLC: 4-Monobromo-CBD: <0.03% (ND)
  Related substances by HPLC: Olivetol: <0.03% (ND)
  Related substances by HPLC: Sum of impurities, ≥0.05%: 0.07%
  Related substances by HPLC: Δ8-Tetrahydrocannabinol: <0.02% (ND)
  Related substances by HPLC: Δ9-Tetrahydrocannabinol: <0.02% (ND)
40° C./75% RH, 3 months
  Appearance: Off-white
  Assay by HPLC: 98.8%
  Each unspecified impurity: RRT~1.983: 0.03%
  Related substances by HPLC (low level): Δ8-Tetrahydrocannabinol: 30 ppm
  Related substances by HPLC (low level): Δ9-Tetrahydrocannabinol: <4 ppm (ND)
  Related substances by HPLC: 4-Monobromo-CBD: <0.03% (ND)
  Related substances by HPLC: Olivetol: <0.03% (ND)
  Related substances by HPLC: Sum of impurities, ≥0.05%: <0.05%
  Related substances by HPLC: Δ8-Tetrahydrocannabinol: <0.02% (ND)
  Related substances by HPLC: Δ9-Tetrahydrocannabinol: <0.02% (ND)
40° C./75% RH, 5 months
  Appearance: Off-white
  Assay by HPLC: 99.9%
  Each unspecified impurity: RRT~1.918: 0.04%
  Related substances by HPLC (low level): Δ8-Tetrahydrocannabinol: 36 ppm
  Related substances by HPLC (low level): Δ9-Tetrahydrocannabinol: 6 ppm
  Related substances by HPLC: 4-Monobromo-CBD: <0.03% (ND)
  Related substances by HPLC: Olivetol: <0.03% (ND)
  Related substances by HPLC: Sum of impurities, ≥0.05%: <0.05%
  Related substances by HPLC: Δ8-Tetrahydrocannabinol: <0.02% (ND)
  Related substances by HPLC: Δ9-Tetrahydrocannabinol: <0.02% (ND)
